Test results published in article PMC9081605, “A High-Throughput Toxicity Screen of 42 Per- and Polyfluoroalkyl Substances (PFAS) and Functional Assessment of Migration and Gene Expression in Human Placental Trophoblast Cells” (Frontiers in Toxicology, 2022).

Experiments:
Type in all cases: cell-based, human
JEG-3 cells [1] = assay: Mitochondrial membrane potential, JC-10 assay (HTTS); settings: for EC50: four-parameter fit, estimates meeting inclusion criteria; for minimal effective concentration: read-out: MMP ↓, lowest concentration at which the mean response value exceeded the mean control value ± 2*SD (rough binning); for MMP relative to vehicle control (rough binning): after 24 h, in at least one concentration
Excerpt: (§1) JEG-3 human choriocarcinoma trophoblastic cells (American Type Culture Collection, VA, United States) were maintained in sterile-filtered Minimum Essential Media (MEM) supplemented with L-glutamine and phenol red (Thermo Fisher Scientific, MA, United States), 10% (v/v) heat-inactivated BenchMark Fetal Bovine Serum (Gemini Bio, CA, United States), 1% (v/v) sodium pyruvate (Thermo Fisher Scientific, MA, United States), and 1% (v/v) penicillin streptomycin (Sigma Aldrich, MO, United States). Cells were maintained in an incubator at 37°C with 5% CO2. JEG-3 cells were cultured in 10 cm tissue culture plates and cell passage numbers were recorded.
(§2) A total of 42 perfluoroalkyl substances (PFAS) were evaluated (Supplementary Table S1 contains source and purity). PFAS stock solutions were maintained in 100% methanol as previous work has shown certain PFAS degrade when stored in dimethyl sulfoxide (DMSO; [Gaballah et al., 2020]). […] The vehicle control group consisted of 97.5% media + 2.5% methanol to match the concentration of methanol in the media at the highest PFAS concentration tested (500 µM). Menadione (50–500 µM) was used as a positive control for cytotoxicity assessment. PFAS were de-identified and assigned random numbers to eliminate bias. Chemical exposure plate maps were designed so that all experimental conditions were tested in at least technical duplicates per plate. The outer edges of each plate received media alone and were excluded from all analyses to avoid edge effects. Each plate map included 14 technical replicates of the vehicle control group and 14 technical replicates of media only. Biological replicates were defined as separate 384 well plates tested on separate days using different cell passages. The experimental workflow is depicted in Supplementary Figure S1.
(§3) JEG-3 cells were counted using a Z2 Coulter Particle Counter (Beckman Coulter, CA, United States) and seeded at a density of 2,500 cells per well in black-walled, clear bottom 384 well plates (Corning, #3764) and allowed to adhere overnight. Approximately 24 h later, 384 well plates were imaged using an IncuCyte Zoom live cell imager (Essen BioScience Inc., MI, United States) to obtain baseline cellular confluence measurements prior to chemical dosing (0 h). Media was removed from wells and replaced with fresh media containing chemical treatments (exposure media) using a Viaflo liquid handling device (Integra Biosciences, NH, United States). Within 30 min of exposure media application, plates were again imaged for cellular confluence using the IncuCyte Zoom. Plates were incubated with exposure media for 24 h and then imaged again using the IncuCyte Zoom (24 h).
The JC-10 assay (Enzo Life Sciences, NY, United States) was used to evaluate mitochondrial membrane potential, the main bioenergetic parameter that regulates respiratory rate, ATP synthesis and reactive oxygen species generation. In cells with polarized mitochondrial membranes, the JC-10 dye localizes to the mitochondrial matrix and forms red fluorescent aggregates (540/590 nm). In cells with depolarized mitochondrial membranes, the JC-10 dye localizes in the cytoplasm and converts to a green fluorescent monomer (490/525 nm). Mitochondrial membrane potential was calculated as the ratio of the green and red fluorescence intensities within a well.
At the end of the 24 h exposure period, exposure media was removed from the plate. The plate wells were then washed with 1x phosphate buffered saline (1x PBS). After washing, the JC-10 reagent was suspended in fresh 1x PBS and 20 µl was added to each well at a final concentration of 20 μM (Enzo Life Sciences, NY, United States). The plate was incubated for 1 h at 37°C, and the fluorescence intensities at excitation/emission wavelengths of 490/525 nm and 540/590 nm were measured using a CLARIOstar (BMG Labtech, Offenburg, Germany) plate reader, respectively.
HTTS data were analyzed using a custom data analysis script in R v 1.2.5019 ([R Core Team, 2019]). […]

JEG-3 cells [2] = assay: Proliferation, change in confluence 0-24 h (IncuCyte Zoom, HTTS); settings: for minimal effective concentration: read-out: Prolif ↓, lowest concentration at which the mean response value exceeded the mean control value ± 2*SD (rough binning); for cellular proliferation relative to vehicle control (rough binning): after 24 h, in at least one concentration
Excerpt: as §1, §2, §3
Plate well bottom images were evaluated using automated cell masking. The automated cell masking program was developed using IncuCyte Zoom base software. Cell masking parameters were defined using a training set of JEG-3 cell images obtained prior to conducting the experiments and following IncuCyte Zoom software recommendations. Briefly, the training images were obtained from cell culture plates with varying levels of JEG-3 cellular confluence (ranging from ∼15% confluent to ∼95% confluent). Parameters for the automated cell masking were first manually set by an experimenter for 3-6 images of low (∼15–30%), medium (∼30–70%), and high confluence (∼70% or greater). The training images were then evaluated by the automated masking program and manually checked to ensure the parameters were sufficiently strict to ignore background (e.g., blank space on the plate well bottom) but adequately sensitive to detect cell borders. The masking program was then implemented on the experimental plates to obtain a baseline cellular confluence measurement at 0 h and a second confluence measurement at 24 h. […]

JEG-3 cells [3] = assay: CellTiter-Glo luminescent cell viability assay (HTTS); settings: for Viability ↓, lowest concentration at which the mean response value exceeded the mean control value ± 2*SD (rough binning): decrease; for cell viability relative to vehicle control (rough binning): after 24 h, in at least one concentration
Excerpt: as §1, §2, §3
In the same plate evaluated for mitochondrial membrane potential, cell viability measures were duplexed using the CellTiter-Glo (CTG) Luminescent Cell Viability Assay (Promega, WI, United States). CTG reagent was added to each well at a volume of 20 µl. The plate was left at room temperature to incubate for 5 min and then 20 µl from each well was transferred to a low-volume, round-bottom, white 384 well plate (Corning, NY, United States). The CTG reagent lyses cellular and mitochondrial membranes and binds to adenosine triphosphate (ATP) released by cells, which produces a luminescence signal. The intensity of the luminescence was considered a proxy measure for the number of live cells in a well. The luminescence intensities were measured using the CLARIOstar plate reader.
HTTS data were analyzed using a custom data analysis script in R v 1.2.5019 ([R Core Team, 2019]). Briefly, raw data points corresponding to the confluence measurements at 0 and 24 h, the fluorescence intensities corresponding to MMP, and the relative luminescence units (RLU) corresponding to cell viability were imported directly from Microsoft Excel into the R programming environment, RStudio. Separate plates run on separate days using different JEG-3 passages were considered as biologic replicates. […]

[4] = Homo sapiens, JEG-3, 24 h, read-out: MMP EC50 ± SD, JEG-3 cells, 24 h exposure
[5] = Homo sapiens, JEG-3, 24 h, read-out: Proliferation EC50 ± SD, JEG-3 cells, 24 h exposure, four-parameter fit, estimates meeting inclusion criteria
[6] = Homo sapiens, JEG-3, 24 h, read-out: Viability EC50 ± SD, JEG-3 cells, 24 h exposure, four-parameter fit, estimates meeting inclusion criteria

| SMILES | EC50 (JEG-3 cells [1]; [4]) [µM] | EC50 (JEG-3 cells [2]; [5]) [µM] | EC50 (JEG-3 cells [3]; [6]) [µM] | EC50 (JEG-3 cells [3]; Homo sapiens, JEG-3, 24 h, read-out: viability EC50 ± SE, JEG-3 cells, 24 h) [µM] | EC50 (JEG-3 cells [1]; JEG-3 cells, 24 h exposure, read-out: MMP EC50 ± SD) [µM] | EC50 (JEG-3 cells [2]; JEG-3 cells, raw model output including fits that did not meet inclusion criteria, read-out: Proliferation EC50 ± SD (raw values)) [µM] | EC50 (JEG-3 cells [3]; JEG-3 cells, 24 h exposure, four-parameter fit, estimates meeting inclusion criteria, read-out: Viability EC50 ± SD) [µM] | minimal effective concentration (JEG-3 cells [1]; Homo sapiens, JEG-3, 24 h) [µM] | MMP relative to vehicle control (rough binning) (JEG-3 cells [1]) | minimal effective concentration (JEG-3 cells [2]; Homo sapiens, JEG-3, 24 h) [µM] | cellular proliferation relative to vehicle control (rough binning) (JEG-3 cells [2]) | Viability ↓, lowest concentration at which the mean response value exceeded the mean control value ± 2*SD (rough binning) (JEG-3 cells [3]; JEG-3 cells, 24 h) [µM] | cell viability relative to vehicle control (rough binning) (JEG-3 cells [3]) | EC50 (JEG-3 cells [1]; read-out: MMP EC50 ± SD, JEG-3 cells, 24 h exposure) [µM] | Viability ↑, lowest concentration at which the mean response value exceeded the mean control value ± 2*SD (rough binning) (JEG-3 cells [3]; JEG-3 cells, 24 h, increase) [µM] |
| --- | --- | --- | --- | --- | --- | --- | --- | --- | --- | --- | --- | --- | --- | --- | --- |
| O=S(=O)(O)CCC(F)(F)C(F)(F)C(F)(F)C(F)(F)C(F)(F)C(F)(F)C(F)(F)C(F)(F)F [8:2 Fluorotelomer sulfonic acid] | 331 ± 5.7 | 321 ± 171 | 160 ± 45.7 | 160 ± 46 | – | – | – | – | – | – | – | – | – | – | – |
| O=C(O)C(F)(F)C(F)(F)C(F)(F)C(F)(F)C(F)(F)C(F)(F)C(F)(F)C(F)F [9-H-Perfluorononanoic acid] | – | – | – | – | 187 ± 27.6 | 1230 ± 118 | 350 ± 43.1 | – | – | – | – | – | – | – | – |
| O=C(O)C(F)(F)OC(F)(F)C(F)(F)OC(F)(F)C(F)(F)OC(F)(F)F [Perfluoro-3,6,9-trioxadecanoic acid] | – | 303 ± 30.1 | 267 ± 26.8 | – | – | – | – | 450 | reduced MMP | 350 | reduced cellular proliferation | – | – | – | – |
| O=C(O)C(F)(F)OC(F)(F)C(F)(F)OC(F)(F)C(F)(F)OC(F)(F)C(F)(F)C(F)(F)C(F)(F)F [Perfluoro-3,6,9-trioxatridecanoic acid] | – | 332 ± 34.1 | 195 ± 54.6 | – | – | – | – | 50 | reduced MMP | 400 | reduced cellular proliferation | 300 | reduced cell viability | – | – |
| O=C(O)C(F)(F)OC(F)(F)C(F)(F)OC(F)(F)C(F)(F)C(F)(F)C(F)(F)F [Perfluoro-3,6-dioxadecanoic acid] | 350 ± 16.1 | 283 ± 25.7 | – | – | – | – | – | 400 | reduced MMP | 300 | reduced cellular proliferation | 400 | reduced cell viability | – | – |
| O=C(O)C(F)(F)OC(F)(F)C(F)(F)OC(F)(F)F [Perfluoro-3,6-dioxaheptanoic acid] | 368 | 351 ± 11.8 | 326 ± 85.7 | – | – | – | – | 400 | reduced MMP | 400 | reduced cellular proliferation | – | increased cell viability | 368 ± 22.6 | 200 |
